Laboratory results reported in ChEMBL document CHEMBL2424588, “Four-membered heterocycles-containing 4-anilino-quinazoline derivatives as epidermal growth factor receptor (EGFR) kinase inhibitors” (Bioorg Med Chem Lett, 2013).
In brackets after ≈: the same amount, converted by molar mass.

Columns and labels:
[1] = Aqueous solubility of the compound at 20 degC; assay type: physicochemical; conditions: water
[2] = Cytotoxicity against human HCC827 cells after 72 hrs by CCK-8 assay; assay type: functional, cell-based; conditions: HCC827, 72 h
A549 = test: Cytotoxicity against human A549 cells after 72 hrs by CCK-8 assay; assay type: functional, cell-based; conditions: A549, 72 h
[3] = target: Epidermal growth factor receptor (Homo sapiens, UniProt P00533); test: Inhibition of wild type EGFR (unknown origin) after 24 hrs by fluorescence assay
Epidermal growth factor receptor, sequence (P00533 whole entry): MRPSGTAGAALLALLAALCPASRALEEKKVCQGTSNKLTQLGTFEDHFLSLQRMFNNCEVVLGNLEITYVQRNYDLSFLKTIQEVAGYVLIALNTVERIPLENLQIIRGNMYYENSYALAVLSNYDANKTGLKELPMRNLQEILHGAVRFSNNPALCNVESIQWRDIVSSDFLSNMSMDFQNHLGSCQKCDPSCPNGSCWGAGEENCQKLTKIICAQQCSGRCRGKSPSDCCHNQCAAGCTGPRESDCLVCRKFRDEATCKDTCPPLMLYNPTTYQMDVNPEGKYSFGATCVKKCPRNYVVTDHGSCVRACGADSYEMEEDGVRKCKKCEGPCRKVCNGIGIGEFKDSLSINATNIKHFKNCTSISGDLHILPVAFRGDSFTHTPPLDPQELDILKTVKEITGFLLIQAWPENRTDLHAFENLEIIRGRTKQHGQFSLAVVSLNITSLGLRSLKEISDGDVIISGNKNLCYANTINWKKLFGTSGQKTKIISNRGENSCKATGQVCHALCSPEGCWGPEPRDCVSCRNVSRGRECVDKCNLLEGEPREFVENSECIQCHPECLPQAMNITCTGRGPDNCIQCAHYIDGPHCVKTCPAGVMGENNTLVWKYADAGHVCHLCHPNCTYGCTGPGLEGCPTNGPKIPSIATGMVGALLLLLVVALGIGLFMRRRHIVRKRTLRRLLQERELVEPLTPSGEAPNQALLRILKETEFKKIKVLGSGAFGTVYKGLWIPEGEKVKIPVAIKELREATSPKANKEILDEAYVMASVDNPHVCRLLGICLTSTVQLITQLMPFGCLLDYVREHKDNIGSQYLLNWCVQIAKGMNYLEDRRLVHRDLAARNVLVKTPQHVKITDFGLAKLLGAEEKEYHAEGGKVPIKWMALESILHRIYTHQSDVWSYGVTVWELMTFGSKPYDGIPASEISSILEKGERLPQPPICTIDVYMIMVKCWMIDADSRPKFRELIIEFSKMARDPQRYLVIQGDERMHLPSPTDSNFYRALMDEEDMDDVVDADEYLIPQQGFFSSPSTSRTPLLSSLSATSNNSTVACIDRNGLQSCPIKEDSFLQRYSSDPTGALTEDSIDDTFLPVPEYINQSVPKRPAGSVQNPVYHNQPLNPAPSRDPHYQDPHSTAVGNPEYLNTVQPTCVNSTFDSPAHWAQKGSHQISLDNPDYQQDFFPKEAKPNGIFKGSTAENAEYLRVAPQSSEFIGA

SMILES | solubility [1] | IC50 [3] | IC50 [2] | IC50 (A549)
COc1cc2ncnc(Nc3ccc(F)c(Cl)c3)c2cc1OCCN1CC2(C1)CS(=O)(=O)C2 | < 1 µg/mL | 158 nM | 154 nM | > 50000 nM
COc1cc2ncnc(Nc3ccc(F)c(Cl)c3)c2cc1OCCCN1CC2(C1)CS(=O)(=O)C2 | 72.3 µg/mL (≈ 143 µM) | 24 nM | 389 nM | 25200 nM
COc1cc2ncnc(Nc3ccc(F)c(Cl)c3)c2cc1OCCN1CC2(COC2)C1 | 1.4 µg/mL (≈ 3.15 µM) | 16 nM | 16 nM | > 50000 nM
COc1cc2ncnc(Nc3ccc(F)c(Cl)c3)c2cc1OCCN1CC2(CCO2)C1 | < 1 µg/mL | 190 nM | 23 nM | > 50000 nM
COc1cc2ncnc(Nc3ccc(F)c(Cl)c3)c2cc1OCCN1CC2(CSC2)C1 | < 1 µg/mL | 52 nM | 51 nM | 4800 nM
COc1cc2ncnc(Nc3ccc(F)c(Cl)c3)c2cc1OCCN1CC(O)C1 | – | 26 nM | 116 nM | > 50000 nM
COc1cc2ncnc(Nc3ccc(F)c(Cl)c3)c2cc1OCCN1CC(OC)C1 | – | 94 nM | 64 nM | > 50000 nM

The next lines start with results.

solubility [1] | IC50 [3] | SMILES | IC50 [2] | IC50 (A549)
– | 25 nM | COc1cc2ncnc(Nc3ccc(F)c(Cl)c3)c2cc1OCCCN1CC(O)C1 | 352 nM | > 50000 nM
– | 34 nM | COc1cc2ncnc(Nc3ccc(F)c(Cl)c3)c2cc1OCCCN1CC(OC)C1 | 42 nM | 25100 nM
33.8 µg/mL (≈ 71.5 µM) | – | COc1cc2ncnc(Nc3ccc(F)c(Cl)c3)c2cc1OCCCN1CCC2(COC2)C1 | 28 nM | > 50000 nM
28.3 µg/mL (≈ 61.7 µM) | 56 nM | COc1cc2ncnc(Nc3ccc(F)c(Cl)c3)c2cc1OCCCN1CC2(COC2)C1 | 69 nM | 31800 nM
1.2 µg/mL (≈ 2.61 µM) | 36 nM | COc1cc2ncnc(Nc3ccc(F)c(Cl)c3)c2cc1OCCCN1CC2(CCO2)C1 | 39 nM | 25700 nM
25.6 µg/mL (≈ 53.9 µM) | 48 nM | COc1cc2ncnc(Nc3ccc(F)c(Cl)c3)c2cc1OCCCN1CC2(CSC2)C1 | 50 nM | 9500 nM
2.1 µg/mL (≈ 4.7 µM) | – | COc1cc2ncnc(Nc3ccc(F)c(Cl)c3)c2cc1OCCCN1CCOCC1 [GEFITINIB] | – | –
